Source: ChEMBL document CHEMBL3352016, “Natural hydrazine-containing compounds: Biosynthesis, isolation, biological activities and synthesis” (Bioorg Med Chem, 2014)
One block for each compound: values may come before it.

Experiments:
[1] = Anticancer activity against human MDA231 cells; type: functional, cell-based; conditions: MDA-MB-231
[2] = test system: A-375; assay: Anticancer activity against human A375 cells; type: functional, cell-based
[3] = Anticancer activity against human Caco2 cells; type: functional, cell-based; conditions: Caco-2
[4] = Anticancer activity against human HCT116 cells; type: functional, cell-based; conditions: HCT-116
[5] = Inhibition of Escherichia coli DnaG primase

- IC50 [1]: 5 µM
Structure (SMILES): CCCC/C=C\N(NC(C)=O)C(=O)CCC1=CCOC1=O [GERALCIN B]

- IC50 [2]: 1.6 µM
Structure (SMILES): N[C@@H](CCC(=O)NNc1ccc(O)cc1)C(=O)O [XANTHODERMINE]

- IC50 [3]: 81 µM
Structure (SMILES): COc1cc(/C=C/C(=O)NCCc2c[nH]c3ccc(O)cc23)ccc1O [N-FERULOYL SEROTONIN]

- IC50 [4]: 0.8 µM
- IC50 [5]: 700 µM
Structure (SMILES): CCCC/C=C\N(NC(C)=O)C(=O)C(CO)/N=[N+](\[O-])CCCCCC (stereo not given) [GERALCIN C]
